IC50 data for 23 molecules are collected here from patent US8999982B2, “Pharmaceutically active compounds as Axl inhibitors” (Lead Discovery Center GmbH, priority 2010, dated 2015).

Assay [1] has as its target T1, Axl (Homo sapiens (Human), UniProt P30530). The experiment in a line: Axl binding assay. As to the method:
Binding of the tracer to the kinase is detected using an EU-labeled anti-tag antibody. […] Binding of an inhibitor to the kinase competes for binding with the tracer, resulting in a loss of FRET-signal. At first a compound according to formula (I) was diluted in 20 mM Hepes pH 8.0, 1 mM DTT, 10 mM MgCl2 and 0.01% Brij35.

The target in assay [2] is T1, Axl. Nature of the assay: Cellular Axl phosphorylation assay. In kind it is cell-based. To be noted: HEK293 cells transfected with Axl cDNA, 1 hour incubation. As to the method: 3. Cellular Axl Phosphorylation Assay:
HEK293 embryonal kidney fibroblasts were transfected in 96 wells with a plasmid containing Axl cDNA. As transfection reagent Superfect (Qiagen) was used. Transfection of the sole vector backbone served as negative control of Axl expression. After overnight incubation the cellular supernatant was replaced with fresh medium. On the following day the Axl-expressing cells were incubated for 1 hour with a compound according to formula (I) at the suitable concentrations. […] The mesoscale technology was used for quantification.

Where a name gives a salt, the structure may show the parent alone. Some results are limits rather than exact numbers.

T1 sequence (P30530 26-894): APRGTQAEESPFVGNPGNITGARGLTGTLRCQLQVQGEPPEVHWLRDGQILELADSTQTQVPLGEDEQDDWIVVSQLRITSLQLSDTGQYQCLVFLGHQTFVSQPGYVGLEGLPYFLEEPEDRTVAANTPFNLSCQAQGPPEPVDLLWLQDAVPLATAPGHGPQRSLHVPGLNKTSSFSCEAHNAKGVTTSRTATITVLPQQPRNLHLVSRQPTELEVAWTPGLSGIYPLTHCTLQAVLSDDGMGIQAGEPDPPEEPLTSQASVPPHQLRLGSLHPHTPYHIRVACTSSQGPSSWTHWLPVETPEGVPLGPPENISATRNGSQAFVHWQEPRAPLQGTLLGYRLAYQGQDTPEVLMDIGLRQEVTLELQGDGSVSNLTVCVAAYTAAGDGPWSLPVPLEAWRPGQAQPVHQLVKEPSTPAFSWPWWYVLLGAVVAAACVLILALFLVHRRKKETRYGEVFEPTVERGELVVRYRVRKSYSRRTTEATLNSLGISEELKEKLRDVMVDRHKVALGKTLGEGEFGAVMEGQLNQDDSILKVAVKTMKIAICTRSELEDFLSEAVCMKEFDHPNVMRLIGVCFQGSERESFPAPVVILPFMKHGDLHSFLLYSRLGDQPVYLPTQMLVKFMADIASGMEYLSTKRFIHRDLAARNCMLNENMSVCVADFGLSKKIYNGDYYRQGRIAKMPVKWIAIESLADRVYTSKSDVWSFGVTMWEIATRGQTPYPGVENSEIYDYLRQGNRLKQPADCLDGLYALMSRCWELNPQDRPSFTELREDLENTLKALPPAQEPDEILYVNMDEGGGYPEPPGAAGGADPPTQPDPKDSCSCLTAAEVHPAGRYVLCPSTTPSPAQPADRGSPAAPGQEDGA

With `COCCOc1cn(-c2ccc(F)cc2)nc1C(=O)Nc1ccc(Oc2ccnc3cc(OCCCN4CCOCC4)c(OC)cc23)c(F)c1` [Example 50, N-[3-fluoro-4-[[6-methoxy-7-(3-morpholinopropoxy)-4-quinolyl]oxy]phenyl]-1-(4-fluorophenyl)-4-(2-methoxyethoxy)pyrazole-3-carboxamide], the 50% inhibitory concentration (IC50) at Axl [1] and at Axl [2] was less than 500 nM each time.
Regarding `COc1cc2c(Oc3ccc(NC(=O)c4nn(-c5ccc(F)cc5)cc4OCc4ccccc4)cc3F)ccnc2cc1OCCCN1CCOCC1` [Example 51, 4-benzyloxy-N-[3-fluoro-4-[[6-methoxy-7-(3-morpholinopropoxy)-4-quinolyl]oxy]phenyl]-1-(4-fluorophenyl)pyrazole-3-carboxamide], the half-inhibitory concentration (IC50) at Axl [1] and against Axl [2] was less than 500 nM throughout.
Regarding `COc1cc2c(Oc3ccc(NC(=O)c4nn(-c5ccc(F)cc5)cc4[N+](=O)[O-])cc3F)ccnc2cc1OCCCN1CCOCC1` [Example 52, N-[3-fluoro-4-[[6-methoxy-7-(3-morpholinopropoxy)-4-quinolyl]oxy]phenyl]-1-(4-fluorophenyl)-4-nitro-pyrazole-3-carboxamide], the 50% inhibitory concentration (IC50) at Axl [1] and against Axl [2] was less than 500 nM in each case.
In the case of `COc1cc2c(Oc3ccc(NC(=O)c4nn(-c5ccc(F)cc5)cc4N)cc3F)ccnc2cc1OCCCN1CCOCC1` [Example 53, 4-amino-N-[3-fluoro-4-[[6-methoxy-7-(3-morpholinopropoxy)-4-quinolyl]oxy]phenyl]-1-(4-fluorophenyl)pyrazole-3-carboxamide], the IC50 at Axl [1] and against Axl [2] was less than 500 nM each time.
In the case of `CCOc1cn(-c2ccc(F)cc2)nc1C(=O)Nc1ccc(Oc2ccnc3cc(OCCCN)c(OC)cc23)c(F)c1` [Example 54, N-[4-[[7-(3-aminopropoxy)-6-methoxy-4-quinolyl]oxy]-3-fluoro-phenyl]-4-ethoxy-1-(4-fluorophenyl)pyrazole-3-carboxamide], the IC50 at Axl [1] and at Axl [2] was less than 500 nM throughout.
In the case of `CCOc1cn(-c2ccc(F)cc2C)nc1C(=O)Nc1ccc(Oc2ccnc3cc(OCCCN)c(OC)cc23)c(F)c1` [Example 55, N-[4-[[7-(3-aminopropoxy)-6-methoxy-4-quinolyl]oxy]-3-fluoro-phenyl]-4-ethoxy-1-(4-fluoro-2-methyl-phenyl)pyrazole-3-carboxamide], the half-inhibitory concentration (IC50) at Axl [1] and against Axl [2] was less than 500 nM in each case.
For `CCOc1oc(-c2ccc(F)cc2)nc1C(=O)Nc1ccc(Oc2ccnc3cc(OCCCN)c(OC)cc23)c(F)c1` [Example 56, N-[4-[[7-(3-aminopropoxy)-6-methoxy-4-quinolyl]oxy]-3-fluoro-phenyl]-5-ethoxy-2-(4-fluorophenyl)oxazole-4-carboxamide], the half-maximal inhibitory concentration (IC50) at Axl [1] and against Axl [2] was less than 500 nM throughout.
Take `CCOc1cn(-c2ccc(F)cc2C)nc1C(=O)Nc1ccc(Oc2ccnc3cc(OCCCN4CCN(C)CC4)c(OC)cc23)c(F)c1` [Example 57, 4-ethoxy-N-[3-fluoro-4-[[6-methoxy-7-[3-(4-methylpiperazin-1-yl)propoxy]-4-quinolyl]oxy]phenyl]-1-(4-fluoro-2-methyl-phenyl)pyrazole-3-carboxamide]: the 50% inhibitory concentration (IC50) on Axl [1] and against Axl [2] was less than 500 nM each time.
Turning to `CCOc1cn(-c2ccc(F)cc2)nc1C(=O)Nc1ccc(Oc2ccnc3cc(OCCCN4CCN(C)CC4)c(OC)cc23)c(F)c1` [Example 58, 4-ethoxy-N-[3-fluoro-4-[[6-methoxy-7-[3-(4-methylpiperazin-1-yl)propoxy]-4-quinolyl]oxy]phenyl]-1-(4-fluorophenyl)pyrazole-3-carboxamide], the 50% inhibitory concentration (IC50) on Axl [1] and at Axl [2] was less than 500 nM each time.
Take `COc1cc2c(Oc3ccc(NC(=O)c4nn(-c5ccc(F)cc5)cc4OC)cc3F)ccnc2cc1OCCCN1CCN(C)CC1` [Example 59, N-[3-fluoro-4-[[6-methoxy-7-[3-(4-methylpiperazin-1-yl)propoxy]-4-quinolyl]oxy]phenyl]-1-(4-fluorophenyl)-4-methoxy-pyrazole-3-carboxamide]: the IC50 at Axl [1] and against Axl [2] was less than 500 nM each time.
On to `CCOc1cn(-c2ccc(F)cc2Cl)nc1C(=O)Nc1ccc(Oc2ccnc3cc(OCCCN4CCN(C)CC4)c(OC)cc23)c(F)c1` [Example 60, 1-(2-chloro-4-fluoro-phenyl)-4-ethoxy-N-[3-fluoro-4-[[6-methoxy-7-[3-(4-methylpiperazin-1-yl)propoxy]-4-quinolyl]oxy]phenyl]pyrazole-3-carboxamide], for which the IC50 on Axl [1] and against Axl [2] was less than 500 nM throughout.
As for `COc1cc2c(Oc3ccc(NC(=O)c4nn(-c5ccc(F)cc5)cc4OCC4CC4)cc3F)ccnc2cc1OCCCN1CCN(C)CC1` [Example 61, 4-(cyclopropylmethoxy)-N-[3-fluoro-4-[[6-methoxy-7-[3-(4-methylpiperazin-1-yl)propoxy]-4-quinolyl]oxy]phenyl]-1-(4-fluorophenyl)pyrazole-3-carboxamide], the IC50 on Axl [1] and against Axl [2] was less than 500 nM in each case.
With `COc1cc2c(Oc3ccc(NC(=O)c4nn(-c5ccc(F)cc5)cc4OC(C)C)cc3F)ccnc2cc1OCCCN1CCN(C)CC1` [Example 62, N-[3-fluoro-4-[[6-methoxy-7-[3-(4-methylpiperazin-1-yl)propoxy]-4-quinolyl]oxy]phenyl]-1-(4-fluorophenyl)-4-isopropoxy-pyrazole-3-carboxamide], the IC50 at Axl [1] and against Axl [2] was less than 500 nM throughout.
In the case of `CCOc1oc(-c2ccc(F)cc2)nc1C(=O)Nc1ccc(Oc2ccnc3cc(OCCCN4CCN(C)CC4)c(OC)cc23)c(F)c1` [Example 63, 5-ethoxy-N-[3-fluoro-4-[[6-methoxy-7-[3-(4-methylpiperazin-1-yl)propoxy]-4-quinolyl]oxy]phenyl]-2-(4-fluorophenyl)oxazole-4-carboxamide], the half-maximal inhibitory concentration (IC50) on Axl [1] and against Axl [2] was less than 500 nM throughout.
Regarding `COc1cc2c(Oc3ccc(NC(=O)c4nn(-c5ccc(F)cc5)cc4OCC4CC4)cc3F)ccnc2cc1OCCCN1CCNCC1` [Example 64, 4-(cyclopropylmethoxy)-N-[3-fluoro-4-[[6-methoxy-7-(3-piperazin-1-ylpropoxy)-4-quinolyl]oxy]phenyl]-1-(4-fluorophenyl)pyrazole-3-carboxamide trifluoroacetic acid salt], the half-inhibitory concentration (IC50) at Axl [1] and against Axl [2] was less than 500 nM throughout.
Turning to `CCOc1cn(-c2ccc(F)cc2)nc1C(=O)Nc1ccc(Oc2ccnc3cc(OCCCN4CCNCC4)c(OC)cc23)c(F)c1` [Example 65, 4-ethoxy-N-[3-fluoro-4-[[6-methoxy-7-(3-piperazin-1-ylpropoxy)-4-quinolyl]oxy]phenyl]-1-(4-fluorophenyl)pyrazole-3-carboxamide], the IC50 on Axl [1] and on Axl [2] was less than 500 nM each time.
In the case of `COc1cc2c(Oc3ccc(NC(=O)c4nn(-c5ccc(F)cc5)cc4OC)cc3F)ccnc2cc1OCCCN1CCNCC1` [Example 66, N-[3-fluoro-4-[[6-methoxy-7-(3-piperazin-1-ylpropoxy)-4-quinolyl]oxy]phenyl]-1-(4-fluorophenyl)-4-methoxy-pyrazole-3-carboxamide], the IC50 at Axl [1] and against Axl [2] was less than 500 nM each time.
Consider `COc1cc2c(Oc3ccc(NC(=O)c4nn(-c5ccc(F)cc5)cc4OC(C)C)cc3F)ccnc2cc1OCCCN1CCNCC1` [Example 67, N-[3-fluoro-4-[[6-methoxy-7-(3-piperazin-1-ylpropoxy)-4-quinolyl]oxy]phenyl]-1-(4-fluorophenyl)-4-isopropoxy-pyrazole-3-carboxamide], for which the IC50 at Axl [1] and at Axl [2] was less than 500 nM in each case.
As to `CCOc1cn(-c2ccc(F)cc2Cl)nc1C(=O)Nc1ccc(Oc2ccnc3cc(OCCCN4CCNCC4)c(OC)cc23)c(F)c1` [Example 68, 1-(2-chloro-4-fluoro-phenyl)-4-ethoxy-N-[3-fluoro-4-[[6-methoxy-7-(3-piperazin-1-ylpropoxy)-4-quinolyl]oxy]phenyl]pyrazole-3-carboxamide], the IC50 at Axl [1] and at Axl [2] was less than 500 nM each time.
`CCOc1cn(-c2ccc(F)cc2C)nc1C(=O)Nc1ccc(Oc2ccnc3cc(OCCCN4CCNCC4)c(OC)cc23)c(F)c1` [Example 69, 4-ethoxy-N-[3-fluoro-4-[[6-methoxy-7-(3-piperazin-1-ylpropoxy)-4-quinolyl]oxy)phenyl]-1-(4-fluoro-2-methyl-phenyl)pyrazole-3-carboxamide]: the IC50 at Axl [1] and against Axl [2] was less than 500 nM throughout.
On to `COCCOc1cn(-c2ccc(F)cc2)nc1C(=O)Nc1ccc(Oc2ccnc3cc(OCCCN4CCNCC4)c(OC)cc23)c(F)c1` [Example 70, N-[3-fluoro-4-[[6-methoxy-7-(3-piperazin-1-ylpropoxy)-4-quinolyl]oxy]phenyl]-1-(4-fluorophenyl)-4-(2-methoxyethoxy)pyrazole-3-carboxamide], for which the concentration for half-maximal inhibition (IC50) at Axl [1] and against Axl [2] was less than 500 nM in each case.
With `COc1cc2c(Oc3ccc(NC(=O)c4nn(-c5ccc(F)cc5)cc4OCC4CCN(C)C4)cc3F)ccnc2cc1OCCCN1CCNCC1` (stereo not shown) [Example 71, N-[3-fluoro-4-[[6-methoxy-7-(3-piperazin-1-ylpropoxy)-4-quinolyl]oxy]phenyl]-1-(4-fluorophenyl)-4-[(1-methylpyrrolidin-3-yl)methoxy]pyrazole-3-carboxamide], the IC50 at Axl [1] is less than 500 nM; against Axl [2], 500 to 5000 nM.
For the molecule `COc1cc2c(Oc3ccc(NC(=O)c4csc(-c5ccccc5)n4)cc3F)ccnc2cc1OCCCN1CCNCC1` [Example 72, N-[3-fluoro-4-[[6-methoxy-7-(3-piperazin-1-ylpropoxy)-4-quinolyl]oxy]phenyl]-2-phenyl-thiazole-4-carboxamide], the IC50 at Axl [1] and on Axl [2] was less than 500 nM each time.

For orientation: IC50 means the midpoint of a concentration-inhibition curve. A higher IC50 goes with a need for much substance.
